These results are taken from US4005213A, “2,5-Substituted-1,3,4-thiadiazoles as fungicides” (Schering Aktiengesellschaft, priority 1968, dated 1977).

The term minimal effective concentration denotes the lowest level tested that produced the effect sought.

The subject of assay [1] is Pythium ultimum. Description: Limit concentration of soil-fungicidal effectiveness, Pythium ultimum infested soil, peas (Example 1). In kind it is in vivo. The settings on record: 20 to 23 days, 22°-25° C., germination at least 90% vs steamed soil; for minimal effective concentration: Globisporangium ultimum. As for the experimental part:
Limit concentrations of the soil-fungicidal effectiveness at homogeneous mixture of the products with the infested soil. Basic condition in the evaluation are a sound root formation without fungus necroses and germination of the seed of at least 90% compared with the result obtained in steamed soil. Per concentration there were seeded 25 grains of peas of the variety "Miracle of Kelvedon" (marrow pea) without a waiting period. the cultivation time in the tests was 20 to 23 days at a temperature of 22°-25° C. Four commercial products were included in the test series.
Pythium ultimum: Steamed compost soil was inoculated with mycelium of Pythium ultimum

In another assay the test system is Stemphylium ilicis. Description: Agar test, Stemphylium ilicis (Example 7). In kind it is cell-based. The settings on record: 10 ppm in malt extract agar, 5 days at 22° C.; control 100. As for the experimental part:
(§1) The fungicidal action of the agents according to the invention was tested in artificial nutrient media against plant-pathogenic fungi in Petri dishes (agar test). The procedure was to sterilize the medium consisting of 2% malt extract and 1.5% agar-agar powder. Before the solidification of the medium, the active substances were added to it, mixing thoroughly, so that the medium received 10 parts of active substance per million (ppm). After the solidification of the medium, the latter was inoculated with a platinum dropper which contained 100 spores each of the fungi to be tested, and after 5 days at 22° C., an evaluation was made by measuring the diameter of the colonies in mm.

In another assay the test system is Aspergillus niger. As to the kind of experiment: Agar test, Aspergillus niger (Example 7). The assay is classed as cell-based. The note with it: 10 ppm in malt extract agar, 5 days at 22° C.; control 100. The protocol:
as §1

The subject of assay [2] is Pythium ultimum. As to the kind of experiment: Pea test in soil inoculated with Pythium ultimum (Example 2). In kind it is in vivo. On the set-up: key to Root evaluation (1-4): 4 = white roots, no necroses … 1 = severe necroses, roots rotted. The settings on record: for Root evaluation (1-4): 3 weeks. The protocol:
Steamed compost soil was inoculated with mycelium of Pythium ultimum. […] The following table lists the number of germinated sound peas, the weight of the fresh plant, and a root evaluation after a cultivation period of 3 weeks at 22°-25° C.
4 = white roots, without fungus necroses
3 = white roots, slight fungus necroses
2 = brown roots, more intense fungus necroses
1 = severe fungus necroses, roots rotted

For another assay, the system named is Rhizoctonia solani. As to the kind of experiment: Pea test in soil inoculated with Rhizoctonia solani (Example 3). The assay is classed as in vivo. The settings on record: for Root evaluation (1-4): 3 weeks; for Number of sound peas after 3 wks.: 25 grains seeded. An excerpt:
Steamed compost soil was inoculated with mycelium of Rhizoctonia solani. After homogeneous mixture of the products with the infested soil, the products were present in the form of 20% powder preparations, the seeding of 25 grains of marrow peas of the variety Miracle of Kelvedon per concentration was effected without waiting period in clay dishes holding 1 liter of soil. The table lists the number of germinated sound peas, the weight of the fresh plant, and a root evaluation after a cultivation period of 3 weeks at 22°-25° C.

[3] abbreviates: 10 mg active ingr. per liter of soil.
Where [4] appears, read: 20 mg active ingr. per liter of soil.
Where [5] appears, read: 30 mg active ingr. per liter of soil.
Setting [6] is: 50 mg active ingr. per liter of soil.
[7] abbreviates: 100 mg active ingr. per liter of soil.

For the compound `C[S+]([O-])c1nnc(CCl)s1` (stereo not shown) [Compound 2, 2-chloromethyl-5-methylsulfinyl-1,3,4-thiadiazole], the minimal effective concentration in the assay on Pythium ultimum [1] came out at 30 µg/mL.

Turning to `CC(C)[S+]([O-])c1nnc(C(Cl)Cl)s1` (stereo not shown) [Compound 6, 2-dichloromethyl-5-isopropylsulfinyl-1,3,4-thiadiazole], the minimal effective concentration with Pythium ultimum [1] was above 200 µg/mL.

Take `CCCCC[S+]([O-])c1nnc(C(Cl)Cl)s1` (stereo not shown) [Compound 7, 2-dichloromethyl-5-amylsulfinyl 1,3,4-thiadiazole]: the “diameter of the colonies, Stemphylium ilicis” value (shortened to “diameter … Stemphylium ilicis”) with Stemphylium ilicis came to 0 mm. For the same compound, the “diameter of the colonies, Aspergillus niger” value (“diameter … Aspergillus niger” for short) in the assay on Aspergillus niger was 0 mm. In the assay on Pythium ultimum [1], this compound displayed a minimal effective concentration above 200 µg/mL.

Turning to `CCC[S+]([O-])c1nnc(C(Cl)(Cl)Cl)s1` (stereo not shown) [Compound 10, 2-trichloromethyl-5-propylsulfinyl-1,3,4-thiadiazole], the “diameter … Stemphylium ilicis” value in the assay on Stemphylium ilicis came out at 0 mm. Also, the “diameter … Aspergillus niger” value with Aspergillus niger is listed as 0 mm. Further, the minimal effective concentration in the assay on Pythium ultimum [1] amounted to 100 µg/mL.

In the assay on Pythium ultimum [1], `CC(C)[S+]([O-])c1nnc(C(Cl)(Cl)Cl)s1` (stereo not shown) [Compound 11, 2-trichloromethyl-5-isopropylsulfinyl-1,3,4-thiadiazole] registered a minimal effective concentration above 200 µg/mL.

As to `CCCC[S+]([O-])c1nnc(C(Cl)(Cl)Cl)s1` (stereo not shown) [Compound 12, 2-trichloromethyl-5-butylsulfinyl-1,3,4-thiadiazole], in the assay on Stemphylium ilicis, the “diameter … Stemphylium ilicis” value is listed as 0 mm. Moreover, the “diameter … Aspergillus niger” value with Aspergillus niger is reported as 0 mm. The compound also returned a minimal effective concentration in the assay with Pythium ultimum [1] of 200 µg/mL.

For the compound `CCCCCCC[S+]([O-])c1nnc(C(Cl)(Cl)Cl)s1` (stereo not shown) [Compound 13, 2-trichloromethyl-5-heptylsulfinyl-1,3,4-thiadiazole], the “diameter … Stemphylium ilicis” value in the assay on Stemphylium ilicis is 0 mm. The “diameter … Aspergillus niger” value in the assay with Aspergillus niger is 0 mm. In the assay with Pythium ultimum [1], the minimal effective concentration is above 200 µg/mL.

In turn, `CCCCCCCC[S+]([O-])c1nnc(C(Cl)(Cl)Cl)s1` (stereo not shown) [Compound 14, 2-trichloromethyl-5-octylsulfinyl-1,3,4-thiadiazole] yielded a minimal effective concentration in the assay on Pythium ultimum [1] above 200 µg/mL.

In the case of `CS(=O)(=O)c1nnc(CCl)s1` [Compound 15, 2-chloromethyl-5-methylsulfonyl-1,3,4-thiadiazole], the “Root evaluation (1-4)” value in the assay with Pythium ultimum [2] (setting [3]), in the assay on Pythium ultimum [2] (setting [4]) and in the assay on Pythium ultimum [2] (setting [5]) was 4 in each case. In the assay on Pythium ultimum [1], this compound displayed a minimal effective concentration of 10 µg/mL.

In the case of `CC(C)S(=O)(=O)c1nnc(CCl)s1` [Compound 16, 2-chloromethyl-5-isopropylsulfonyl-1,3,4-thiadiazole], in the assay on Pythium ultimum [1], the minimal effective concentration is 150 µg/mL.

As for `CC(C)S(=O)(=O)c1nnc(C(Cl)Cl)s1` [Compound 20, 2-dochloromethyl-5-isopropylsulfonyl-1,3,4-thiadiazole], the minimal effective concentration with Pythium ultimum [1] is 200 µg/mL.

As to `CCS(=O)(=O)c1nnc(C(Cl)(Cl)Cl)s1` [Compound 22, 2-trichloromethyl-5-ethylsulfonyl-1,3,4-thiadiazole], the “diameter … Stemphylium ilicis” value in the assay with Stemphylium ilicis is recorded as 0 mm. Besides, in the assay with Aspergillus niger, the “diameter … Aspergillus niger” value is given as 0 mm. The minimal effective concentration in the assay with Pythium ultimum [1] worked out at 50 µg/mL.

With `CC(C)S(=O)(=O)c1nnc(C(Cl)(Cl)Cl)s1` [Compound 24, 2-trichloromethyl-5-isopropylsulfonyl-1,3,4-thiadiazole], the “diameter … Stemphylium ilicis” value in the assay on Stemphylium ilicis was 0 mm. For the same compound, in the assay on Aspergillus niger, the “diameter … Aspergillus niger” value came out at 0 mm. The same compound showed a minimal effective concentration in the assay with Pythium ultimum [1] of 150 µg/mL.

Consider `CCCCS(=O)(=O)c1nnc(C(Cl)(Cl)Cl)s1` [Compound 25, 2-trichloromethyl-5-butylsulfonyl-1,3,4-thiadiazole], for which, in the assay on Stemphylium ilicis, the “diameter … Stemphylium ilicis” value is given as 0 mm. Further, the “diameter … Aspergillus niger” value with Aspergillus niger came to 0 mm. The compound further registered a minimal effective concentration in the assay on Pythium ultimum [1] above 200 µg/mL.

For the compound `CCCCCS(=O)(=O)c1nnc(C(Cl)(Cl)Cl)s1` [Compound 26, 2-trichloromethyl-5-amylsulfonyl-1,3,4-thiadiazole], the “diameter … Stemphylium ilicis” value with Stemphylium ilicis is reported as 0 mm. The “diameter … Aspergillus niger” value with Aspergillus niger turned out to be 0 mm. In the assay with Pythium ultimum [1], this compound showed a minimal effective concentration above 200 µg/mL.

For the compound `CS(=O)(=O)c1nnc(CBr)s1` [Compound 30, 2-bromomethyl-5-methylsulfonyl-1,3,4-thiadiazole], the “Root evaluation (1-4)” value with Pythium ultimum [2] (setting [3]) was 1; with Pythium ultimum [2] (setting [4]), 4; with Pythium ultimum [2] (setting [5]), 4. In the assay with Pythium ultimum [2] (10 mg active ingr. per liter of soil, 25 grains seeded), the “Number of sound peas after 3 wks.” value is reported as 21. For the same compound, the minimal effective concentration in the assay with Pythium ultimum [1] is 20 µg/mL.

In the assay with Pythium ultimum [1], `CCS(=O)(=O)c1nnc(CBr)s1` [Compound 31, 2-bromomethyl-5-ethylsulfonyl-1,3,4-thiadiazole] had a minimal effective concentration of 50 µg/mL.

`C[S+]([O-])c1nnc(CF)s1` (stereo not shown) [Compound 33, 2-fluoromethyl-5-methylsulfinyl-1,3,4-thiadiazole]: in the assay with Pythium ultimum [1], the minimal effective concentration was found to be 50 µg/mL.

`CS(=O)(=O)c1nnc(CF)s1` [Compound 34, 2-fluoromethyl-5-methylsulfonyl-1,3,4-thiadiazole] gave a minimal effective concentration in the assay on Pythium ultimum [1] of 50 µg/mL.

`CC(C)C[S+]([O-])c1nnc(C(F)(F)F)s1` (stereo not shown) [Compound 37, 2-trifluoromethyl-5-isobutylsulfinyl-1,3,4-thiadiazole] had a minimal effective concentration with Pythium ultimum [1] of 30 µg/mL.

`CCCCC[S+]([O-])c1nnc(C(F)(F)F)s1` (stereo not shown) [Compound 38, 2-trifluoromethyl-5-pentylsulfinyl-1,3,4-thiadiazole] came in with a minimal effective concentration in the assay with Pythium ultimum [1] of 100 µg/mL.

For the compound `CCCCCC[S+]([O-])c1nnc(C(F)(F)F)s1` (stereo not shown) [Compound 39, 2-trifluoromethyl-5-hexylsulfinyl-1,3,4-thiadiazole], in the assay on Pythium ultimum [1], the minimal effective concentration came out at 100 µg/mL.

In the assay on Pythium ultimum [1], `CC(C)S(=O)(=O)c1nnc(C(F)(F)F)s1` [Compound 41, 2-trifluoromethyl-5-isopropylsulfonyl-1,3,4-thiadiazole] gave a minimal effective concentration of 10 µg/mL.

In turn, `CC(C)CS(=O)(=O)c1nnc(C(F)(F)F)s1` [Compound 42, 2-trifluoromethyl-5-isobutylsulfonyl-1,3,4-thiadiazole] yielded a minimal effective concentration in the assay with Pythium ultimum [1] of 20 µg/mL.

In the assay with Pythium ultimum [1], `CCCCCCS(=O)(=O)c1nnc(C(F)(F)F)s1` [Compound 43, 2-trifluoromethyl-5-hexylsulfonyl-1,3,4-thiadiazole] registered a minimal effective concentration above 100 µg/mL.

`CCCCCCCS(=O)(=O)c1nnc(C(F)(F)F)s1` [Compound 44, 2-trifluoromethyl-5-heptylsulfonyl-1,3,4-thiadiazole]: the minimal effective concentration in the assay on Pythium ultimum [1] is above 100 µg/mL.

As for `CS(=O)(=O)c1nnc(C(F)(F)C(F)(F)F)s1` [Compound 45, 2-pentafluoroethyl-5-methylsulfonyl-1,3,4-thiadiazole], in the assay with Pythium ultimum [1], the minimal effective concentration is 100 µg/mL.

`CC(Cl)(Cl)c1nnc(S(C)(=O)=O)s1` [Compound 47, 2-(1,1-dichloroethyl)-5-methylsulfonyl-1,3,4-thiadiazole] showed a minimal effective concentration in the assay with Pythium ultimum [1] of 80 µg/mL.

On to `CCC(Cl)c1nnc([S+](C)[O-])s1` (stereo not shown) [Compound 48, 2-(1-chloropropyl)-5-methylsulfinyl-1,3,4-thiadiazole], for which the minimal effective concentration with Pythium ultimum [1] was above 100 µg/mL.

`CCC(Cl)c1nnc(S(C)(=O)=O)s1` (stereo not shown) [Compound 49, 2-(1-chloropropyl)-5-methylsulfonyl-1,3,4-thiadiazole] yielded a minimal effective concentration with Pythium ultimum [1] of 100 µg/mL.

In the assay with Pythium ultimum [1], `CC(Br)c1nnc(S(C)(=O)=O)s1` (stereo not shown) [Compound 50, 2-(1-bromethyl)-5-methylsulfonyl-1,3,4-thiadiazole] gave a minimal effective concentration of 40 µg/mL.

Take `CC(C)C(Br)c1nnc(S(C)(=O)=O)s1` (stereo not shown) [Compound 51, 2-(1-bromisobutyl)-5-methylsulfonyl-1,3,4-thiadiazole]: the minimal effective concentration with Pythium ultimum [1] is above 100 µg/mL.

For `CCCCC(Br)c1nnc(S(C)(=O)=O)s1` (stereo not shown) [Compound 52, 2-(1-bromopentyl)-5-methylsulfonyl-1,3,4-thiadiazole], the “Limit concentration of fungicidal effectiveness, Pythium ultimum” value in the assay with Pythium ultimum [1] was “no effect”.

As for `CC(C)CC(Br)c1nnc(S(C)(=O)=O)s1` (stereo not shown) [Compound 53, 2-(1-bromisopentyl)-5-methylsulfonyl-1,3,4-thiadiazole], the “Limit concentration of fungicidal effectiveness, Pythium ultimum” value with Pythium ultimum [1] is “no effect”.

For `O=[N+]([O-])c1c(Cl)c(Cl)c(Cl)c(Cl)c1Cl` [Pentachloronitrobenzene, reference compound], the “Root evaluation (1-4)” value with Rhizoctonia solani (setting [6]) is reported as 1; in the assay with Rhizoctonia solani (setting [7]) it was 4. The “Number of sound peas after 3 wks.” value came out at 4 with Rhizoctonia solani (setting [6]) and 25 in the assay with Rhizoctonia solani (setting [7]).
